Measured values: ChEMBL document CHEMBL1201862, “PubChem BioAssay data set” (2004)
The source made the active and inactive calls.

Experiments:
Cytochrome P450 3A4 = Cytochrome P450 3A4 (Homo sapiens, UniProt P08684);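 also: CYP3A4 tested as one member of a cytochrome P450 panel screen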
Cytochrome P450 1A2 = target: T1, Cytochrome P450 1A2 (Homo sapiens, UniProt P05177);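 also: PubChem cytochrome P450 panel assay, CYP1A2 panel member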
T1 sequence (P05177 whole entry): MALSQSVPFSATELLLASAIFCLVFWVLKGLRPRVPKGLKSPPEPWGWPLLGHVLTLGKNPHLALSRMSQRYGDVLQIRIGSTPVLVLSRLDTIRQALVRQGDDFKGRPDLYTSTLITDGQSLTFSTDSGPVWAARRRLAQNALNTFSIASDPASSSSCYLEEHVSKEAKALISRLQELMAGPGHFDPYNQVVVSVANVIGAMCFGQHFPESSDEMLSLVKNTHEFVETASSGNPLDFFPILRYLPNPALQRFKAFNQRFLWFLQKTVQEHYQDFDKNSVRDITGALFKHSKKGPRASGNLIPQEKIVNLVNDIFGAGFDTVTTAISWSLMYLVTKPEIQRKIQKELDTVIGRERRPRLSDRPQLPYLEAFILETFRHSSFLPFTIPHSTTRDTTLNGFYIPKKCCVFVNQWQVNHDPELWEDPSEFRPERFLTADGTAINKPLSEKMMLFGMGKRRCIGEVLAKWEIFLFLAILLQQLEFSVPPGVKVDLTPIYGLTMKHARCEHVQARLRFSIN

Cytochrome P450 2C9 = Cytochrome P450 2C9 (Homo sapiens, UniProt P11712)
[1] = test system: Streptococcus sp. 'group A'; experiment: Streptococcus pyogenes SK(-)GAS viability under kanamycin – luminescence, BacTiterGlo, confirmation, counter-screen for streptokinase expression inhibitor project, dose response (AID 1900); type: functional, organism-based
Streptococcus = experiment: GAS UMAA2166 growth inhibition – luminescence, BacTiterGlo, counter-screen for streptokinase expression inhibitor project, dose response (AID 1915); type: functional, organism-based;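 also: potency for reduction of bacterial viability or growth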
[2] = Trypanosoma cruzi growth suppression in host cells – NIH3T3 host cells, beta-gal luminescence, confirmation (AID 2044); type: functional, cell-based;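 also: intracellular parasites grown in NIH/3T3 mouse fibroblasts as host cells; luminescent beta-galactosidase reporter signal from transgenic T. cruzi replicating inside host cells; inhibitors lower the luminescence signal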
[3] = NIH3T3 cell viability loss – ATP luminescence, mouse fibroblasts, counter-screen, dose response (AID 2010); type: functional, cell-based;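 also: cells exposed to compound for about 90 hours before reading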

Chain of Cytochrome P450 3A4 (P08684 whole entry): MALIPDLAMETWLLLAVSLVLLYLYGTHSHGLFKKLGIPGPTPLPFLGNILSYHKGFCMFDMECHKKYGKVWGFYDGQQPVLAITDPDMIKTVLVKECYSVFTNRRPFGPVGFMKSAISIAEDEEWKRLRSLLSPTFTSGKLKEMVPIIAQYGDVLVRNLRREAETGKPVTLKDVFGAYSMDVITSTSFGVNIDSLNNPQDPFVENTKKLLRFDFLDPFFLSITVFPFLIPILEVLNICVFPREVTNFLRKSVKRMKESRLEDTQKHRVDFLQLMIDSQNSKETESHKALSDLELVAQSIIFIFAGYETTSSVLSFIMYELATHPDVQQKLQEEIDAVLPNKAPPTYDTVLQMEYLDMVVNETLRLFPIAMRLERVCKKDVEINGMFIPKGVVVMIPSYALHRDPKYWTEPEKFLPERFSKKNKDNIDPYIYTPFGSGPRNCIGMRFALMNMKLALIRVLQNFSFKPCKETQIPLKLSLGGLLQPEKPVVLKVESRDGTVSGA
Chain of Cytochrome P450 2C9 (P11712 whole entry): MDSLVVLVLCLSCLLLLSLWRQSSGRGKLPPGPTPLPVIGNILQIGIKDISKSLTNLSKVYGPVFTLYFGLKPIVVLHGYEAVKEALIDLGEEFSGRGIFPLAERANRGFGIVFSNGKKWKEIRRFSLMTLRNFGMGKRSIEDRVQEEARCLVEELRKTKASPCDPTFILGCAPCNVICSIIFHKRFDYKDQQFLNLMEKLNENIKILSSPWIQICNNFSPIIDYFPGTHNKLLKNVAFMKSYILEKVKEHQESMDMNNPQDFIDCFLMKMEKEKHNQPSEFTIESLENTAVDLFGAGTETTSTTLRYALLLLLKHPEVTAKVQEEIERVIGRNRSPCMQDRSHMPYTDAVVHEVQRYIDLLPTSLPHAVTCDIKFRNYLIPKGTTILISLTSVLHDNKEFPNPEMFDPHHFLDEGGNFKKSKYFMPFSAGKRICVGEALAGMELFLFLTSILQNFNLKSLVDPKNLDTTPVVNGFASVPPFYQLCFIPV

| AC50 (Cytochrome P450 3A4) | AC50 (Cytochrome P450 2C9) | SMILES | other results |
| --- | --- | --- | --- |
| 20 µM (inconclusive) |  | O=C(c1cc(-c2cccs2)on1)N1CCN(c2ccc(F)cc2)CC1 |  |
| 6.31 µM (inconclusive) |  | COc1cccc(Nc2ncc3nc(CCc4ccccc4)c(=O)n(Cc4cccs4)c3n2)c1 | AC50 (Cytochrome P450 1A2): 3.16 µM (inconclusive) |
|  |  | O=C(Oc1ccccc1)N1CCC[C@@]2(CCN(C(c3ccccc3)c3ccccc3)C2)C1 | AC50 (Cytochrome P450 1A2): 25.1 µM (inconclusive) |
|  |  | Cc1cccc2c(SCC(=O)NCC3CCCO3)nc(-c3ccc(F)cc3)nc12 (centres undefined) | AC50 (Cytochrome P450 1A2): 0.447 µM (inconclusive) |
| 25.1 µM (inconclusive) | 15.8 µM (inconclusive) | CCOC(=O)C1CCCN(C/C=C/c2ccccc2[N+](=O)[O-])C1 (centres undefined) |  |
|  |  | CO/C(O)=C1\C(C)=NC(C)=C([N+](=O)[O-])[C@H]1c1ccccc1C(F)(F)F | AC50 (Cytochrome P450 1A2): 31.6 µM (inconclusive) |
| 35.5 µM (inconclusive) | 12.6 µM (inconclusive) | CCOc1ccc2nc(N3CCCCCC3)sc2c1 |  |
| 12.6 µM (inconclusive) |  | COc1ccc(-n2c(=O)c(CCc3ccccc3)nc3cnc(N4CCN(C)CC4)nc32)cc1 |  |
|  |  | CN1CCN2c3ncccc3Cc3ccccc3C2C1 (centres undefined) [MIRTAZAPINE] | AC50 (Cytochrome P450 1A2): 20 µM (inconclusive) |
|  | 11.2 µM (inconclusive) | Cc1nc2ccccn2c1C(=O)C1=C(O)C(=O)N(CCCn2ccnc2)C1c1ccncc1 (centres undefined) |  |
| 22.4 µM (inconclusive) |  | CCNc1nc(Sc2ccc(C)cc2)cc(C(F)(F)F)n1 |  |
| 12.6 µM (inconclusive) |  | CNCCC=C1c2ccccc2C=Cc2ccccc21 | AC50 (Cytochrome P450 1A2): 6.31 µM (inconclusive) |
|  |  | Cc1cc(=O)n2c3ccccc3n(CC(O)CN3CCCCC3)c2c1C#N (centres undefined) | AC50 (Cytochrome P450 1A2): 15.8 µM (inconclusive) |
| 25.1 µM (inconclusive) | 35.5 µM (inconclusive) | O=C(CC1C(=O)NCCN1C(=S)Nc1ccccc1)Nc1ccc2c(c1)OCCO2 (centres undefined) |  |
|  |  | CCCCn1c(=O)c(C(=O)Nc2ccccn2)c(O)c2ccccc21 | EC50 [1]: 3.64 µM (active); EC50 (Streptococcus): 19.2 µM (active) |
| 39.8 µM (inconclusive) |  | CCc1ccc(C(=O)N2CCC(c3nc4ccccc4s3)CC2)cc1 | AC50 (Cytochrome P450 1A2): 17.8 µM (inconclusive) |
| 3.98 µM (inconclusive) |  | Cc1nc2cnc(OCc3ccccc3)nc2n(CCC#N)c1=O |  |
| 12.6 µM (inconclusive) |  | O=c1c(-c2ccc(F)c(F)c2)nc2cncnc2n1Cc1ccccc1Cl |  |
|  |  | CCOc1ccc(Cc2nccc3cc(OCC)c(OCC)cc23)cc1OCC [ETHAVERINE] | AC50 (Cytochrome P450 1A2): 10 µM (inconclusive) |
| 10 µM (inconclusive) |  | Cc1cnc(CNc2ccnc(-c3ccc(N(C)C)cc3)n2)cn1 |  |
| 2.51 µM (inconclusive) |  | C[N+](C)(CCCCCC[N+](C)(C)CCCN1C(=O)c2cccc3cccc(c23)C1=O)CCCN1C(=O)c2cccc3cccc(c23)C1=O |  |
| 12.6 µM (inconclusive) | 2 µM (inconclusive) | Fc1ccc(C2=Nn3c(Cc4ccccc4F)nnc3SC2)cc1 |  |
|  |  | CC(C)C[C@H]1C(=O)N2CCC[C@@H]2[C@@]2(O)O[C@](NC(=O)[C@@H]3C=C4c5cccc6[nH]cc(c56)C[C@@H]4N(C)C3)(C(C)C)C(=O)N12 | AC50 (Cytochrome P450 1A2): 12.6 µM (inconclusive) |
| 12.6 µM (inconclusive) |  | COCCNc1nc(-c2ccoc2)nc2ccccc12 |  |
| 20 µM (inconclusive) |  | CC(C)NC(=O)N1CC[C@@]2(CCCN(S(=O)(=O)c3ccccc3)C2)C1 |  |
| 15.8 µM (inconclusive) |  | CC(=O)N1CCc2cc(Br)cc(S(=O)(=O)N3CCN(C(=O)c4ccco4)CC3)c21 |  |

| AC50 (Cytochrome P450 3A4) | AC50 (Cytochrome P450 2C9) | SMILES | other results |
| --- | --- | --- | --- |
| 7.94 µM (inconclusive) | 10 µM (inconclusive) | O=c1c(-c2cccs2)nc2cnc(N3CCOCC3)nc2n1-c1ccccc1 |  |
| 28.2 µM (inconclusive) | 39.8 µM (inconclusive) | Cc1cc2ccccn2c1C(=O)c1nc(N2CCOCC2)ncc1Cl |  |
|  |  | CCOC(=O)CCC(=O)O[C@H]1[C@H](O[C@@H]2[C@@H](C)[C@H](O[C@H]3C[C@@](C)(OC)[C@@H](O)[C@H](C)O3)[C@@H](C)C(=O)O[C@H](CC)[C@@](C)(O)[C@H](O)[C@@H](C)C(=O)[C@H](C)C[C@@]2(C)O)O[C@H](C)C[C@@H]1N(C)C [ERYTHROMYCIN ETHYLSUCCINATE] | EC50 [1]: < 0.06 µM (active); EC50 (Streptococcus): < 0.06 µM (active) |
| 1.26 µM (inconclusive) |  | Cn1c(=O)c2c(nc(N3CCN(c4ccccn4)CC3)n2Cc2ccccc2Cl)n(C)c1=O |  |
| 0.398 µM (inconclusive) |  | COc1ccccc1CNc1ncncc1-c1ccccc1C |  |
|  | 2.51 µM (inconclusive) | CCOc1ccc(-c2nnc3n2N=C(c2ccc(OC)cc2)CS3)cc1 |  |
| 39.8 µM (inconclusive) |  | COC(=O)N1CCC2(CCCN(c3ccc(-c4ccccc4)cc3)C2)CC1 |  |
|  |  | O=S(=O)(c1ccccc1)N1CCC2(CCCN(c3ncccn3)C2)CC1 | AC50 (Cytochrome P450 1A2): 15.8 µM (inconclusive) |
| 25.1 µM (inconclusive) | 15.8 µM (inconclusive) | CCC(C)Nc1c([N+](=O)[O-])cc(C)cc1[N+](=O)[O-] (centres undefined) |  |
|  | 15.8 µM (inconclusive) | COc1cc(OC)c(C2C(C(=O)Nc3ccc(C)cc3C)=C(C)Nc3ncnn32)cc1OC (centres undefined) |  |
| 25.1 µM (inconclusive) |  | CCNc1ncc2nc(-c3ccccc3)c(=O)n(CCC#N)c2n1 |  |
|  |  | COC(=O)[C@@]1(Cc2ccc(F)cc2)[C@H]2c3cc(C(=O)N4CCCC4)n(CCc4ccc(OC)c(Br)c4)c3C[C@H]2CN1C(=O)c1ccccc1 | AC50 (Cytochrome P450 1A2): 15.8 µM (inconclusive) |
|  | 39.8 µM (inconclusive) | CCCCCCCCCCCCCCCCCCNC(=O)OC[C@@H](COP(=O)([O-])OCC[n+]1ccsc1)OC |  |
|  | 6.31 µM (inconclusive) | CC[C@H](Cc1c(I)cc(I)c(N)c1I)C(=O)O |  |
|  | 22.4 µM (inconclusive) | O=C(NC1CCCC1)c1cnn2c(C(F)(F)F)cc(-c3ccco3)nc12 |  |
|  | 25.1 µM (inconclusive) | Cc1ccc(OCCNC(=O)c2cncc(Br)c2)cc1C |  |
|  |  | COc1ccc(/C=C/C(=O)NC(=S)NNC(=O)c2cc(OC)c(OC)c(OC)c2)cc1 | EC50 [1]: 1.38 µM (active); EC50 (Streptococcus): 3.48 µM (active) |
|  |  | COc1c(C)cc(Br)cc1C(=O)Nc1ccc(Cc2ccncc2)cc1 | EC50 [2]: 2.16 µM (active); EC50 [3]: > 60 µM (not active) |
|  |  | COc1cccc(CN2CCN(Cc3c(C)nn(C(C)C)c3C)CC2CCO)c1 (centres undefined) | EC50 [2]: 1.14 µM (active); EC50 [3]: > 60 µM (not active) |
|  |  | Cc1nnc2ccccc2c1O | AC50 (Cytochrome P450 1A2): 0.398 µM (inconclusive) |
| 3.98 µM (inconclusive) |  | CSc1cc2c(cc1C(F)(F)F)N(C(=O)Nc1cccnc1)CC2 |  |
|  | 39.8 µM (inconclusive) | CCOc1ccc(C(CC(=O)O)NC(=O)COc2ccccc2)cc1 (centres undefined) |  |
|  |  | CC(C)c1cccc(OCCCCN(C)C)c1 | EC50 [2]: 0.587 µM (active); EC50 [3]: > 60 µM (not active) |
|  |  | C[C@H]1C2=C3C(CC[C@H]4C(OCc5ccc(F)cc5C(F)(F)F)OC[C@](C)([C@@H]34)N(C(=O)OC(C)(C)C)C2)C2COC(=O)OCC21 (some centres undefined) | AC50 (Cytochrome P450 1A2): 6.31 µM (inconclusive) |
|  |  | CCC(c1nnnn1CS(=O)(=O)c1ccc(C)cc1)N1CCN(c2nc3ccccc3s2)CC1 (centres undefined) | EC50 [2]: 0.861 µM (active); EC50 [3]: > 30 µM (not active) |

| SMILES | AC50 (Cytochrome P450 3A4) | AC50 (Cytochrome P450 2C9) | other results |
| --- | --- | --- | --- |
| Nc1c(S(=O)(=O)O)cc(Nc2cccc(S(N)(=O)=O)c2)c2c1C(=O)c1ccccc1C2=O | 7.94 µM (inconclusive) |  |  |
| CCOC(=O)N(c1ccccc1)P1(=S)OCCO1 |  | 0.0355 µM (inconclusive) |  |
| C/C(=N\OC(=O)NC(C)C)c1sc(-c2ccccc2)nc1C | 25.1 µM (inconclusive) | 11.2 µM (inconclusive) |  |
| O=C(c1csnn1)N1CCC2(CC1)CN(Cc1ccncc1)C2 | 15.8 µM (inconclusive) |  |  |
| Cc1cnc2cc(Cl)ccc2c1SCC(=O)O | 3.98 µM (inconclusive) |  |  |
